According to US20240099951A1, “HAIR GROWTH STIMULANT” (ADJUVANT HOLDINGS CO., LTD., priority 2020, published 2024):

Tested on: VEGF gene
Test: Human dermal papilla cell VEGF gene expression (real-time PCR)
Format: cell-based
Settings: 72 hours; for amount of expression of the VEGF gene as compared with the control group: human dermal papilla cells
Method: Human dermal papilla cells (Catalog No. CA602t05a; derived from person; Toyobo Co., Ltd. (Japan)) were purchased, testing and evaluation being carried out with maintenance and culture of cells being performed as described in the protocol.
As drugs for testing, drug solutions of the following respective concentrations (final concentrations) were prepared and used. • Comparative Example 5: 30 μM minoxidil • Comparative Example 6: 100 μM adenosine • Working Example 3: 0.3125 μM phytosphingosine • Working Example 4: 1.25 μM phytosphingosine
A 24-well plate was seeded with human dermal papilla cells so as to obtain 6×10^3 thereof per well. Following culture for 1 day within a CO2 incubator (5% CO2; 37° C.), the culture medium was replaced with culture medium which contained the respective drugs for testing. The cell plate was thereafter returned to the CO2 incubator, and this was further cultured for 72 hours. Following culture, total RNA was extracted from the respective wells and was recovered, and this was reverse-transcribed into cDNA. The cDNA that was prepared was used to measure VEGF gene expression in accordance with the real-time PCR method. The GAPDH gene was used as an internal standard, the amount of VEGF gene expression being calculated relative to the negative control group. […]
300 μL of lysis buffer RL was added thereto per well, and the cells were lysed by pipetting. […] Concentration of the recovered RNA was measured using a NanoDrop Lite (Catalog No. ND-LITE; Thermo Fisher Scientific K.K.), and this was stored at −80° C. until the following cDNA creation procedure.
A FastGene scriptase II cDNA synthesis 5X Ready Mix (Catalog No. NE-LS64; Nippon Genetics Co., Ltd. (Japan)) was used to synthesize cDNA. Dilution with RNase Free Water was carried out so as to cause concentration of total RNA produced in a new tube to be 20 ng/mL, 4 μL of FastGene scriptase II cDNA synthesis 5X Ready Mix was added to 16 μL of this sample solution, and this was agitated by vortexing. […]

## CCCCCCCCCCCCCC[C@@H](O)[C@@H](O)[C@@H](N)CO [phytosphingosine]
0.3125 μM phytosphingosine (Working Example 3)
  amount of expression of the VEGF gene as compared with the control group: increase
1.25 μM phytosphingosine (Working Example 4)
  amount of expression of the VEGF gene as compared with the control group: increase
Increased amount of phytosphingosine added
  amount of expression of the VEGF gene compared with 30 μM minoxidil (Comparative Example 5) or 100 μM adenosine (Comparative Example 6): greater
